# Read-outs that look alike come from different tables or passages of the source.
# Tests used:
# [1] = test system: trypsin; test: Proteinase inhibitory activity (trypsin/casein); format: biochemical; conditions: for % Inhibition of proteinase activity: 250 μg/ml, mean ± SD (n = 3)
# Procedure: For proteinase inhibitory activity, the reaction mixture (2 ml) contained 0.06 mg trypsin, 20 mM Tris HCl buffer (pH 7.4) and 1 ml test sample (250 μg/ml for each compound). The mixture was incubated for 5 min and then 1 ml of 0.8% (w/v) casein was added. The mixture was incubated for an additional 20 min. 1 ml of 10% perchloric acid was added to arrest the reaction. The cloudy suspension was centrifuged, and the absorbance of the supernatant was read at 280 nm. Reference standard compound aspirin was used as the positive control for this assay. The experiment was performed in triplicate. Percentage inhibition of […] was calculated by using the following formula:
# [formula] where Acontrol is the absorbance of the control reaction and Atest is the absorbance of the control reaction with sample.
# [2] = DPPH microplate radical scavenging antioxidant assay; format: biochemical; conditions: for IC50: DPPH, 30 min, mean ± SD (n = 3)
# Procedure: The antioxidant activity of the synthesized compounds was measured in terms of hydrogen-donating or radical scavenging ability using the DPPH microplate-based method. Absorbance measurement was obtained using Microplate/cuvette reader (Spectramax M5, Molecular Devices, California, USA). Reference standard compound ascorbic acid was used as the positive control for this assay at concentrations ranging from 1.563 to 200 μg/mL. Test samples were prepared at a starting concentration of 200 μg/mL after mixing with 100 μl of 0.2 mM DPPH methanolic solution. A series of concentrations were tested for the samples in order to determine the 50% inhibitory concentration (IC50). Samples were incubated with DPPH in the dark for 30 min at room temperature (25° C.). The DPPH solution in methanol was prepared daily and stored in a flask covered with aluminum foil. DPPH radicals have an absorption maximum (λmax) at 515 nm, in which the absorbance values were measured and converted into percentage of antioxidant activity.
# Methanolic DPPH solution without antioxidant was applied as control and background control was samples in methanol only. IC50 was determined using Graphpad Prism 7 (Graphpad Software Inc. CA, USA). The percentage inhibition was calculated by using the formula:
# The assay was carried out in triplicate and performed as much as possible in an area protected against light. The data points are presented as the mean±standard deviation (SD) (n=3).
# [3] = test system: Saccharomyces cerevisiae (local isolate); test: Agar well diffusion, primary antimicrobial screening; format: cell-based; conditions: for zone of inhibition at 10000 µg/mL: Saccharomyces cerevisiae, 24 h, read-out: Inhibition Diameter Zone SC; for antimicrobial activity compared with ketoconazole: S. cerevisiae
# From the text: (§1) The newly synthesized compounds were individually tested for their in vitro antimicrobial activity against the standard bacteria strains of American Type Culture Collection (ATCC), namely, Staphylococcus aureus ATCC 29213, Bacillus subtilis ATCC 6633, Bacillus megaterium ATCC 9885 (Gram-positive), Escherichia coli ATCC 2592 and Pseudomonas aeruginosa ATCC 27953 (Gram-negative). In addition, they were microbiologically tested against the locally isolated Saccharomyces cerevisiae (yeast) and the standard strain of Agricultural Research Service Culture Collection (NRRL) of the yeast like pathogenic fungus Candida albicans NRRL Y-477. The primary screening was carried out using the agar well diffusion method using nutrient agar (NA) medium and Sabourand dextrose agar (SDA) medium for pathological tested bacteria and yeast, respectively.
# (§2) Antimicrobial tests were carried out by the agar well diffusion method using 100 μL of suspension containing 1×10^8 CFU/mL of pathological tested bacteria and 1×10^6 CFU/ml of yeast spread on NA and SDA, respectively. After the media was cooled and solidified, wells (10 mm in diameter) were made in the solidified agar and loaded with 100 μL of tested compound solution prepared by dissolving 10 mg of the chemical compound in one ml of dimethyl sulfoxide (DMSO). The inculcated plates were then incubated for 24 h at 37° C. for bacteria and yeast. Negative controls were prepared using DMSO employed for dissolving the tested compound. Ciprofloxacin (10 mg/ml) and ketoconazole (10 mg/ml) were used as standard for antibacterial and antifungal activity, respectively. After incubation time, antimicrobial activity was evaluated by measuring the zone of inhibition against the test organisms and compared with that of the standard. Antimicrobial activities were expressed as inhibition diameter zones in millimeters (mm). The experiment was carried out in triplicate and the average zone of inhibition was calculated.
# [4] = test system: Bacillus megaterium ATCC 9885; test: as above; format: cell-based; conditions: for zone of inhibition at 10000 µg/mL: Priestia megaterium, ATCC9885, B. megaterium ATCC 9885, 100 μL of 10 mg/ml in DMSO, 24 h, read-out: Inhibition Diameter Zone BM; for antibacterial activity compared with ciprofloxacin: B. megaterium
# From the text: as §1, §2
# [5] = test system: Pseudomonas aeruginosa ATCC 27953; test: as above; format: cell-based; conditions: for zone of inhibition at 10000 µg/mL: Pseudomonas aeruginosa, ATCC27953, P. aeruginosa ATCC 27953, 100 μL of 10 mg/ml in DMSO, 24 h, read-out: Inhibition Diameter Zone PA
# From the text: as §1, §2
# [6] = test system: Escherichia coli ATCC 2592; test: as above; format: cell-based; conditions: for zone of inhibition at 10000 µg/mL: Escherichia coli, ATCC2592, E. coli ATCC 2592, 100 μL of 10 mg/ml in DMSO, 24 h, read-out: Inhibition Diameter Zone EC; for antibacterial activity compared with ciprofloxacin: E. coli
# From the text: as §1, §2
# [7] = test system: Bacillus subtilis ATCC 6633; test: as above; format: cell-based; conditions: for zone of inhibition at 10000 µg/mL: Bacillus subtilis, ATCC6633, B. subtilis ATCC 6633, 100 μL of 10 mg/ml in DMSO, 24 h, read-out: Inhibition Diameter Zone BS; for antibacterial activity compared with reference drug: B. subtilis
# From the text: as §1, §2
# [8] = test system: Candida albicans NRRL Y-477; test: as above; format: cell-based; conditions: for zone of inhibition at 10000 µg/mL: Candida albicans, NRRLY477, C. albicans NRRL Y-477, 100 μL of 10 mg/ml in DMSO, 24 h, read-out: Inhibition Diameter Zone CA; for antifungal activity compared with reference drug: C. albicans
# From the text: as §1, §2
# [9] = test system: tested microorganisms; test: Agar well diffusion, summary over the tested microorganisms; format: cell-based; conditions: for antimicrobial activity compared with standard antimicrobials (ciprofloxacin and ketoconazole): against one or more microorganisms
# From the text: as §1, §2
# [10] = test system: Staphylococcus aureus ATCC 29213; test: Agar well diffusion, primary antimicrobial screening; format: cell-based; conditions: for zone of inhibition at 10000 µg/mL: Staphylococcus aureus, ATCC29213, S. aureus ATCC 29213, 100 μL of 10 mg/ml in DMSO, 24 h, read-out: Inhibition Diameter Zone SA; for antibacterial activity compared with ciprofloxacin: S. aureus
# From the text: as §1, §2
# [11] = S. cerevisiae local isolate, 100 μL of 10 mg/ml in DMSO
SMILES,% Inhibition of proteinase activity [1] [%],melting point [°C],IC50 [2],zone of inhibition at 10000 µg/mL [4] [mm],zone of inhibition at 10000 µg/mL [5] [mm],zone of inhibition at 10000 µg/mL [6] [mm],zone of inhibition at 10000 µg/mL [7] [mm],zone of inhibition at 10000 µg/mL [8] [mm],"zone of inhibition at 10000 µg/mL [3, 11] [mm]",antimicrobial activity compared with standard antimicrobials (ciprofloxacin and ketoconazole) [9],antimicrobial activity compared with ketoconazole [3],antibacterial activity compared with ciprofloxacin [10],antibacterial activity compared with reference drug [7],other results
"Cc1ccc2oc(=O)c3c(c2c1)OC(N=CN(C)C)=C(C#N)C3c1ccc([N+](=O)[O-])cc1 (racemic) [Compound 7a, (±)-N′-(3-cyano-9-methyl-4-(4-nitrophenyl)-5-oxo-4H,5H-pyrano[3,2-c]chromen-2-yl)-N,N-dimethylformimidamide]",31.99 ± 2.45,279 to 281,— ((—): inactive (IC50 > 200 μg/mL)),< 15,< 15,< 15,< 15,< 15,–,–,–,–,–,zone of inhibition at 10000 µg/mL [3]: < 15 mm
"Cc1ccc2oc(=O)c(S(=O)(=O)Nc3ccc(S(N)(=O)=O)cc3)c(O)c2c1 [Compound 10b, 4-Hydroxy-6-methyl-2-oxo-N-(4-sulfamoylphenyl)-2H-chromene-3-sulfonamide]",5.93 ± 2.11,241 to 243,61.78 ± 2.719 µg/mL,< 15,< 15,< 15,< 15,< 15,< 15,–,–,–,–,growth inhibition zones ([9]; against one or more of the tested microorganisms): < 15 mm; zone of inhibition at 10000 µg/mL [10]: < 15 mm
"O=c1oc2ccc(Cl)cc2c(O)c1S(=O)(=O)Nc1ccc(S(=O)(=O)Nc2ncccn2)cc1 [Compound 10c, 6-Chloro-4-hydroxy-2-oxo-N-(4-(N-(pyrimidin-2-yl)sulfamoyl)phenyl)-2H-chromene-3-sulfonamide]",–,230 to 232,120.12 ± 4.629 µg/mL,–,–,–,–,–,31,equal to or higher than the standard antimicrobials,higher than that of the corresponding control drug,higher than the control ciprofloxacin,higher than the reference drug,antibacterial activity compared with ciprofloxacin [4]: comparable to ciprofloxacin; antibacterial activity compared with ciprofloxacin [6]: comparable antibacterial potential
"Cc1ccc2oc(=O)c(S(=O)(=O)Nc3ccc(S(=O)(=O)Nc4ncccn4)cc3)c(O)c2c1 [Compound 10d, 4-hydroxy-6-methyl-2-oxo-N-(4-(N-(pyrimidin-2-yl)sulfamoyl)phenyl)-2H-chromene-3-sulfonamide]",36.84 ± 4.87,207 to 209,112.19 ± 4.391 µg/mL,–,–,–,–,–,32,equal to or higher than the standard antimicrobials,higher than that of the corresponding control drug,higher than the control ciprofloxacin,higher than the reference drug,antimicrobial spectrum [9]: broad-spectrum activity against all of the tested microorganisms; antibacterial activity compared with ciprofloxacin [4]: comparable to ciprofloxacin; antifungal activity compared with reference drug [8]: higher antifungal activity
"Cc1ccc2oc(=O)c(S(=O)(=O)Nc3ccc(O)cc3)c(O)c2c1 [Compound 11d, 4-Hydroxy-N-(4-hydroxyphenyl)-6-methyl-2-oxo-2H-chromene-3-sulfonamide]",20.15 ± 7.31,253 to 254,4.30 ± 0.531 µg/mL,–,–,–,–,–,32,equal to or higher than the standard antimicrobials,higher than that of the corresponding control drug,higher than the control ciprofloxacin,comparable antibacterial activities to the standard,antioxidant activity ([2]; overview): particularly high antioxidant activity; antibacterial activity compared with standard ([5]; P. aeruginosa): higher than that of the standard drugs; antibacterial activity compared with ciprofloxacin [6]: higher antibacterial activity than ciprofloxacin; antifungal activity compared with reference drug [8]: higher antifungal activity
"CC(=O)c1ccc(NS(=O)(=O)c2c(O)c3cc(C)ccc3oc2=O)cc1 [Compound 11f, N-(4-acetylphenyl)-4-hydroxy-6-methyl-2-oxo-2H-chromene-3-sulfonamide]",2.0 ± 1.4,231 to 232,35.36 ± 3.265 µg/mL,–,< 15,< 15,–,< 15,< 15,–,–,–,–,–
"O=C(/C=C/c1ccc([N+](=O)[O-])cc1)c1ccc(NS(=O)(=O)c2c(O)c3cc(Cl)ccc3oc2=O)cc1 [Compound 12a, (E)-6-chloro-4-hydroxy-N-(4-(3-(4-nitrophenyl)acryloyl)phenyl)-2-oxo-2H-chromene-3-sulfonamide]",62.14±4.87,205 to 207,— ((—): inactive (IC50 > 200 μg/mL)),–,< 15,< 15,–,< 15,< 15,–,–,–,–,in vitro anti-proteinase activity compared with aspirin [1]: more potent
"CC(=O)N1CCN(c2ccc(OCC3COC(Cn4ccnc4)(c4ccc(Cl)cc4Cl)O3)cc2)CC1 (stereo not drawn) [Ketoconazole, ketoconazole, reference compound]",–,–,–,< 15,< 15,< 15,< 15,–,–,–,–,–,–,zone of inhibition at 10000 µg/mL [10]: < 15 mm

# From patent US10730885B1, “Coumarin derivatives” (KING SAUD UNIVERSITY, priority 2019, dated 2020)
